Measured values: patent EP4299736A2, “HYDROLASES AND USES THEREOF” (Vilnius University, priority 2022, dated 2024)

Columns and labels:
Format in all cases: biochemical
[1] = system: hydrolases SEQ ID NO: 1-41; assay: Analysis of substrate spectrum of hydrolases (TLC, HPLC-MS, GC-MS); further: key: '+'- active; ' –' inactive towards derivative
Protocol: A hydrolytic activity of enzymes was analysed by thin-layer chromatography (TLC), high-performance liquid chromatography and a mass spectrometry (HPLC-MS) and Gas chromatography and a mass spectrometry (GC-MS) methods. Nucleosides, as substrates and hydrolysis reaction products, were tested by thin-layer chromatography (TLC) method and by a high-performance liquid chromatography - mass spectroscopy (HPLC-MS) method. Other reaction products were detected by Gas chromatography-Mass spectrometry (GC-MS) system. […] The conditions of the reactions are given below.
Hydrolysis products test by thin-layer chromatography (TLC) method. A hydrolytic activity was assayed in reaction mixture containing 45 mM potassium phosphate buffer, pH 7.5, 1 µl enzyme (0.1-4.6 µg/reaction) and 4 mM substrate. The total reaction mix volume was 20 µl. Reaction mixture were incubated at 30 °C temperature up to 3 h and at RT overnight. Thin-layer chromatography (TLC) was conducted on the Merck silica gel 60 F254 plates, using the chloroform and methanol (5:1) mixture of solvents.
High-performance liquid chromatography/mass spectrometry (HPLC-MS) analysis of hydrolysis reaction products. […] Mass scans were measured from m/z 10 up to m/z 500, at 350 °C interface temperature, 250 °C DL temperature, ±4,500 V interface voltage, neutral DL/Qarray, using N 2 as nebulizing and drying gas. Mass spectrometry data was acquired in both the positive and negative ionization mode. The data was analysed using the LabSolutions LCMS software. For HPLC-MS analysis, the reaction mixture consisted of 45 mM potassium phosphate buffer (pH 7.5), 2 mM substrate (from 50-100 mM stock in DMSO), and protein (-0.5-1 mg/ ml). Reaction mixture was incubated at 30 °C temperature up to 3 h and at RT overnight.
Gas chromatography-Mass spectrometry (GC-MS) analysis of hydrolysis reaction products. GC-MS analyses were performed with a Shimadzu GCMS-QP2010 Ultra Plus (Kyoto, Japan). […] Temperature program -50°C (1 min), 50°C →250 °C (25 °C/min), total run time - 15 min. The temperatures of injector, interface and ion source were 250°C.
For GC-MS analysis, the reaction mixture consisted of 45 mM potassium phosphate buffer (pH 7.5), 2.4 mM substrate (from 50-100 mM stock in DMSO), and protein (-0.5-1 mg/ ml). The total reaction mix volume was 1000 µl. The hydrolysis reaction products were extracted with ethyl acetate (3x 400 µl).

[2] = system: hydrolase Seq ID No: 3 (metagenomic hydrolase); assay: Spectrophotometric assay of hydrolytic activity (kinetic parameters); details: potassium phosphate buffer, pH 7.5, 22 °C
Protocol: (§1) For the spectrophotometric assay, the reaction was started by adding an appropriate amount of protein to potassium phosphate buffer, pH 7.5 supplemented with 0.3, 0.15, 0.1, 0.075, 0.05, 0.0375, 0.025, 0.0125 mM N^4-benzoyl-2'-deoxycytidine, or 1, 0.8, 0.5, 0.4, 0.25, 0.2, 0.1, 0.05 mM 2'-deoxycytidine. Then, decreases in absorbance at either 310 for N^4-benzoyl-2'-deoxycytidine or 290 nm for 2'-deoxycytidine were recorded at 22 °C. Kinetic parameters (Table x) were calculated using Imfit-py 1.0.2 software fitting the experimental data to a simple Michaelis-Menten kinetics scheme. Table 5. Kinetic parameters of hydrolases. Substrate: BzdC - N4-benzoyl-2'-deoxycytidine; dC-2'-deoxycytidine.

[3] = biological target: hydrolase Seq ID No: 1 (metagenomic, wild-type hydrolase) (uncultured bacterium, UniProt A0ACD6BAS6); assay: as above; details: potassium phosphate buffer, pH 7.5, 22 °C
Protocol: as §1

[4] = biological target: hydrolase variant Seq ID No:13 (site-directed mutant) (uncultured bacterium, UniProt A0ACD6BAS6, form not given/G85I); assay: as above; details: potassium phosphate buffer, pH 7.5, 22 °C, 310 nm (BzdC) or 290 nm (dC)
Excerpt: (§2) Mutations in the hydrolase's genes were introduced using methodology based on "Phusion™ Site-Directed Mutagenesis Kit" (Thermo Fisher Scientific). For specific mutagenesis, primer pairs meant to amplify the whole plasmid with the target protein gene, where one primer has miss-matched base pairs in the middle, were created (Fw/Rv): […]/[…] (SEQ ID NO:10); [formula] [formula] […]/[…] (SEQ ID NO:13); [formula] [formula] […]/[…] and […]/[…] (SEQ ID NO: 16, SEQ ID NO: 17, SEQ ID NO: 18); [formula] […]/[…] (SEQ ID NO: 21); [formula] […]/[…] (SEQ ID NO: 23); […]/[…] (SEQ ID NO: 24).
as §1

[5] = biological target: hydrolase variant Seq ID No: 15 (site-directed mutant) (uncultured bacterium, UniProt A0ACD6BAS6); assay: as above; details: potassium phosphate buffer, pH 7.5, 22 °C, 310 nm (BzdC) or 290 nm (dC)
Excerpt: as §2, §1

[6] = 310 nm (BzdC) or 290 nm (dC), unit not given
[7] = absorbance decrease at 310 nm (BzdC) or 290 nm (dC), Michaelis-Menten fit

hydrolase Seq ID No: 1 (metagenomic, wild-type hydrolase), sequence (A0ACD6BAS6 entry or part of it): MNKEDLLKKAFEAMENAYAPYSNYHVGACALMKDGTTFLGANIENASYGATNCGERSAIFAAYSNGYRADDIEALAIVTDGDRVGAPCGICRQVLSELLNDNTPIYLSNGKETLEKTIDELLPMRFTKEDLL
hydrolase variant Seq ID No:13 (site-directed mutant), sequence (A0ACD6BAS6 entry or part of it G85I, form open): as the sequence (A0ACD6BAS6 entry or part of it) above
hydrolase variant Seq ID No: 15 (site-directed mutant), sequence (A0ACD6BAS6 entry or part of it, change not shown): as the sequence (A0ACD6BAS6 entry or part of it) above

Row | SMILES | Hydrolysis of S^4-alkyl uridine derivatives ([1]; enzyme SEQ ID No:1) | Hydrolysis of S^4-alkyl uridine derivatives ([1]; enzyme SEQ ID No:2) | Hydrolysis of S^4-alkyl uridine derivatives ([1]; enzyme SEQ ID No:3) | Hydrolysis of S^4-alkyl uridine derivatives ([1]; enzyme SEQ ID No:4) | Hydrolysis of S^4-alkyl uridine derivatives ([1]; enzyme SEQ ID No:9) | Hydrolysis of S^4-alkyl uridine derivatives ([1]; enzyme SEQ ID No:25) | Hydrolysis of S^4-alkyl uridine derivatives ([1]; enzyme SEQ ID No:28) | Hydrolysis of S^4-alkyl uridine derivatives ([1]; enzyme SEQ ID No:30) | Hydrolysis of S^4-alkyl uridine derivatives ([1]; enzyme SEQ ID No:34) | Hydrolysis of S^4-alkyl uridine derivatives ([1]; enzyme SEQ ID No:35) | Hydrolysis of S^4-alkyl uridine derivatives ([1]; enzyme SEQ ID No:38) | Hydrolysis of S^4-alkyl uridine derivatives ([1]; enzyme SEQ ID No:6) | Hydrolysis of S^4-alkyl uridine derivatives ([1]; enzyme SEQ ID No:27) | Hydrolysis of S^4-alkyl uridine derivatives ([1]; enzyme SEQ ID No:32) | Hydrolysis of S^4-alkyl uridine derivatives ([1]; enzyme SEQ ID No:36) | Hydrolysis of S^4-alkyl uridine derivatives ([1]; enzyme SEQ ID No:37) | other results
1 | O=c1nc(SCc2ccccc2)ccn1[C@@H]1O[C@H](CO)[C@@H](O)[C@H]1O [4-S-benzyl-U] | + | + | + | + | + | + | + | + | + | + | + | – | – | – | – | – | Hydrolysis of S^4-alkyl uridine derivatives ([1]; enzyme SEQ ID No:10): +; Hydrolysis of S^4-alkyl uridine derivatives ([1]; enzyme SEQ ID No:13): +; Hydrolysis of S^4-alkyl uridine derivatives ([1]; enzyme SEQ ID No:14): +; Hydrolysis of S^4-alkyl uridine derivatives ([1]; enzyme SEQ ID No:21): +; Hydrolysis of S^4-alkyl uridine derivatives ([1]; enzyme SEQ ID No:39): +; Hydrolysis of S^4-alkyl uridine derivatives ([1]; enzyme SEQ ID No:41): +
2 | CCSc1ccn([C@@H]2O[C@H](CO)[C@@H](O)[C@H]2O)c(=O)n1 [4-S-ethyl-U] | + | + | + | + | + | + | + | + | + | + | + | + | + | + | + | + | Hydrolysis of S^4-alkyl uridine derivatives ([1]; enzyme SEQ ID No:21): +; Hydrolysis of S^4-alkyl uridine derivatives ([1]; enzyme SEQ ID No:26): +; Hydrolysis of S^4-alkyl uridine derivatives ([1]; enzyme SEQ ID No:29): +; Hydrolysis of S^4-alkyl uridine derivatives ([1]; enzyme SEQ ID No:31): +; Hydrolysis of S^4-alkyl uridine derivatives ([1]; enzyme SEQ ID No:33): +; Hydrolysis of S^4-alkyl uridine derivatives ([1]; enzyme SEQ ID No:39): +; Hydrolysis of S^4-alkyl uridine derivatives ([1]; enzyme SEQ ID No:40): +; Hydrolysis of S^4-alkyl uridine derivatives ([1]; enzyme SEQ ID No:41): +
3 | CC(C)CSc1ccn([C@@H]2O[C@H](CO)[C@@H](O)[C@H]2O)c(=O)n1 [4-S-iso-butyl-U] | + | – | + | + | – | – | – | – | – | – | – | – | – | – | – | – | –
4 | CC(C)Sc1ccn([C@@H]2O[C@H](CO)[C@@H](O)[C@H]2O)c(=O)n1 [4-S-iso-propyl-U] | + | – | + | + | – | – | – | – | – | – | – | – | – | – | – | – | –
5 | CCCSc1ccn([C@@H]2O[C@H](CO)[C@@H](O)[C@H]2O)c(=O)n1 [4-S-n-propyl-U] | + | – | + | + | – | – | – | – | – | – | – | – | – | – | – | – | –
6 | O=c1nc(SCc2ccccc2)c(F)cn1[C@@H]1O[C@H](CO)[C@@H](O)[C@H]1O [5-F-4-S-benzyl-U] | + | + | + | + | + | + | – | + | + | + | – | – | – | – | – | – | –
7 | CCSc1nc(=O)n([C@@H]2O[C@H](CO)[C@@H](O)[C@H]2O)cc1F [5-F-4-S-ethyl-U] | + | + | + | + | + | + | + | + | + | + | + | + | + | + | + | + | –
8 | CSc1nc(=O)n([C@@H]2O[C@H](CO)[C@@H](O)[C@H]2O)cc1F [5-F-4-S-methyl-U] | + | + | + | + | + | + | + | + | + | + | + | + | + | + | + | + | Hydrolysis of S^4-alkyl uridine derivatives ([1]; enzyme SEQ ID No:26): +; Hydrolysis of S^4-alkyl uridine derivatives ([1]; enzyme SEQ ID No:29): +; Hydrolysis of S^4-alkyl uridine derivatives ([1]; enzyme SEQ ID No:33): +
9 | O=c1nc(Sc2ccccc2)c(F)cn1[C@@H]1O[C@H](CO)[C@@H](O)[C@H]1O [5F-4-S-phenyl-U] | + | – | – | + | – | – | – | – | – | + | + | – | – | – | – | – | –
10 | Nc1ccn([C@H]2C[C@H](O)[C@@H](CO)O2)c(=O)n1 [dC, 2'-deoxycytidine] | – | – | – | – | – | – | – | – | – | – | – | – | – | – | – | – | kcat ([2]; 310 nm (BzdC) or 290 nm (dC)): (2.09 +/- 0.09) ×10^-1 s^-1; Vmax [2, 6]: (1.20 ± 0.05) × 10^-4; Km [2, 7]: 182 µM; kcat ([3]; 310 nm (BzdC) or 290 nm (dC)): (24.4 ± 1.71) × 10 ^-1 s^-1; Vmax [3, 6]: (2.67 ± 0.19) × 10^-4; Km [3, 7]: 195 µM; kcat [4]: (6.87 ± 0.80) × 10 ^-1 s^-1; Vmax ([4]; unit not given): (4.35 ± 0.51) × 10^-4; kcat [5]: (2.58 ± 0.09) × 10^-2 s^-1; Vmax ([5]; unit not given): (6.70 ± 0.24) × 10^-5
